# Measured values published in patent publication US20250018088A1, “COMPOSITIONS AND METHODS FOR REPAIRING DAMAGE TO SKELETAL MUSCLE” (MAYO FOUNDATION FOR MEDICAL EDUCATION AND RESEARCH, priority 2021, published 2025).
# Legend:
# [1] = test system: Human Skeletal Muscle Myoblasts (HSMM); experiment: Resveratrol inhibition of PEP-mediated HSMM proliferation; format: cell-based
# Method: The mechanism of PEP-induced HSMM proliferation was interrogated using resveratrol (InvivoGen, San Diego, CA), an NF-κB inhibitor, in culture grown with 2.5×10^11 PEP exosomes/mL. The concentration of PEP exosomes was chosen both because of its optimal impact on the growth of cultured HSMMs and to match the empirically determined timed release PEP concentration from TISSEEL (Baxter International, Inc., Deerfield, IL) reconstituted with 1×10^12 PEP exosomes/mL. HSMM were plated on a 96-well plate at 10,000 cells/well overnight. Resveratrol was incubated at concentrations ranging from 50 μM to 500 μM for an hour before adding 2.5×10^11 PEP exosomes/mL to each well. Data is generated from live cell proliferation analysis (INCUCYTE, Essen BioScience, Inc., Ann Arbor, MI) by acquiring phase images (10× lens; five images/well in 96-well plate with three wells/condition). Western blotting for expression of NF-κB p65 at 72 hours post inhibition was quantified and normalized (IMAGE STUDIO software, LI-COR Biosciences, Inc., Lincoln, NE) using a total protein stain.
# NF-κB p65 = experiment: Western blot of NF-κB p65 expression in HSMM cells; format: cell-based, human; conditions: increasing resveratrol 50 μM to 500 μM with 2.5×10^11 exosomes/mL PEP, 72 hours
# Method: Western blotting for expression of exosome markers was conducted in two different manners: traditional and Li-Cor. In the traditional method, equal amounts of protein were loaded into each lane and transferred to a PVDF membrane. The membranes were blocked in 5% nonfat dried milk diluted in TBST and incubated with primary antibodies against CD63, CD9, and Flotillin (Table 1). HIRP-conjugated secondary antibodies were used to incubate the membranes and were developed with enhanced chemiluminescence (AERSHAM, GE Healthcare, Chicago, TL). Loading was standardized to a GAPDH loading control. In the Li-Cor digital fluorescence method (Li-Cor Biosciences, Inc., Lincoln, NE), equal amounts of protein were loaded into each lane and transferred to a nitrocellulose membrane. The membranes were blocked in Li-Cor TBS Blocking Buffer and incubated with primary antibodies against NF-κB p65, and PD-L1. Secondary antibodies at 680 nm and 800 nm were used to fluorescently image the membranes using an imaging system (Odyssey CLx, Li-Cor Biosciences, Inc., Lincoln, NE). Digital fluorescent intensity was determined by IMAGE STUDIO software (Li-Cor Biosciences, Inc., Lincoln, NE) and loading was standardized by total protein stain (Li-Cor Biosciences, Inc., Lincoln, NE) for whole lane protein digital fluorescence and analyzed by EMPIRIA STUDIO software (Li-Cor Biosciences, Inc., Lincoln, NE). […]
compound,measurement,setting,value
Oc1ccc(C=Cc2cc(O)cc(O)c2)cc1 [resveratrol],inhibition at 250 µM,"[1]; Homo sapiens, Myoblast, 250 μM resveratrol, 2.5×10^11 exosomes/mL PEP, p<0.0001 vs PEP",~50%
same,inhibition at 500 µM,"[1]; Homo sapiens, Myoblast, 500 μM resveratrol, 2.5×10^11 exosomes/mL PEP, p<0.0001 vs PEP",~100%
same,inhibition of myoblast growth,"[1]; low doses of resveratrol (e.g., 50 μM), with PEP",not significantly inhibited
same,NF-κB expression in PEP-treated HSMM following resveratrol treatment,NF-κB p65,dose dependent decrease
